Laboratory results reported in ChEMBL document CHEMBL1221225, “A small molecule that directs differentiation of human ESCs into the pancreatic lineage” (Nat Chem Biol, 2009).
The source made the active and inactive calls. The calls are words filed in the database; no cut-off is given here.

Assays:
[1] = Induction of human HUES9 cell differentiation into pancreatic lineage assessed as increase in Pdx1-expression in cells pregrown with medium containing Wnt, activin, FGF10, KAAD-cyclopamine and retinoic acid at 1 uM after 1 day by Opera high content screening system; type: functional
[2] = Induction of human HUES8 cell differentiation into pancreatic progenitor cells assessed as increase in Pdx1-expression in cells pregrown with medium containing Wnt, activin, FGF10, KAAD-cyclopamine and retinoic acid at 300 nM after 4 days by Opera high content screening system relative to control; type: functional
[3] = species: Homo sapiens; experiment: Induction of human HUES4 cell differentiation into pancreatic progenitor cells assessed as increase in Pdx1-expression in cells pregrown with medium containing Wnt, activin, FGF10, KAAD-cyclopamine and retinoic acid at 300 nM after 4 days by Opera high content screening system relative to control; type: functional, cell-based
[4] = Induction of human HUES8 cell differentiation into pancreatic progenitor cell assessed as FOXA2 expression in cells pregrown in medium containing Wnt, activin, FGF10, KAAD-cyclopamine and retinoic acid at 300 nM after 4 days by immunocytochemistry relative to control; type: functional
[5] = test system: HUES8; experiment: Induction of human HUES8 cell differentiation into pancreatic progenitor cell assessed as increase in PROX1 mRNA expression at 300 nM after 4 days by RT-PCR analysis cells pregrown in medium containing Wnt, activin, FGF10, KAAD-cyclopamine and retinoic acid; type: functional, cell-based
[6] = test system: HUES8; experiment: Induction of human HUES8 cell differentiation into endocrine progenitor cell assessed as increase in NKX2.2 mRNA expression at 300 nM after 4 days by RT-PCR analysis cells pregrown in medium containing Wnt, activin, FGF10, KAAD-cyclopamine and retinoic acid; type: functional, cell-based
[7] = test system: HUES8; experiment: Induction of human HUES8 cell differentiation into pancreatic progenitor cell assessed as increase in NGN3 mRNA expression at 300 nM after 4 days by RT-PCR analysis cells pregrown in medium containing Wnt, activin, FGF10, KAAD-cyclopamine and retinoic acid; type: functional, cell-based
[8] = Induction of insulin production in differentiated human HUES8 cells at 300 nM after 4 days by immunocytochemistry (reference value: 0%); type: functional
[9] = species: Homo sapiens; experiment: Induction of C-peptide expression in human HUES8 insulin-producing cells at 300 nM after 4 days by immunocytochemistry relative to control; type: functional
[10] = species: Homo sapiens; experiment: Induction of Pdx1 expression in human HUES8 insulin-producing cells at 300 nM after 4 days by immunocytochemistry relative to control; type: functional
[11] = Effect on glucagon expression in human HUES8 insulin-producing cells at 300 nM after 4 days by immunocytochemistry (reference value: 75.2 +/- 9.1%); type: functional
[12] = species: Homo sapiens; experiment: Effect on human HUES8 differentiation into neuronal lineage assessed as c-peptide/betaIIItubulin double positive cells at 300 nM after 4 days by immunocytochemistry; type: functional, cell-based
[13] = Induction of human HUES8 differentiation into pancreatic lineage assessed as increase in amylase/CPA double-positive exocrine cells at 300 nM after 4 days by RT-PCR (reference value: 1.6+/-0.2%); type: functional
[14] = species: Mus musculus; experiment: Induction of mouse AV3 Pdx1-expressing cell differentiation assessed as increase in SOX9 expression at 300 nM after 6 days by immunohistochemistry pretreated with 1000 ng/ml recombinant mouse Nodal for 5 days; type: functional
[15] = test system: AV3; experiment: Induction of mouse AV3 cell differentiation into pancreatic lineage assessed as increase in Pdx1 mRNA expression at 300 nM after 6 days by RT-PCR analysis pretreated with 1000 ng/ml recombinant mouse Nodal for 5 days; type: functional, cell-based
[16] = test system: AV3; experiment: Induction of mouse AV3 cell differentiation into pancreatic lineage assessed as increase in cdcp1 mRNA expression at 300 nM after 6 days by RT-PCR analysis pretreated with 1000 ng/ml recombinant mouse Nodal for 5 days; type: functional, cell-based
[17] = test system: AV3; experiment: Induction of mouse AV3 cell differentiation into pancreatic lineage assessed as increase in Hnf6 mRNA expression at 300 nM after 6 days by RT-PCR analysis pretreated with 1000 ng/ml recombinant mouse Nodal for 5 days; type: functional, cell-based
[18] = test system: AV3; experiment: Induction of mouse AV3 cell differentiation into pancreatic lineage assessed as increase in Foxa2 mRNA expression at 300 nM after 6 days by RT-PCR analysis pretreated with 1000 ng/ml recombinant mouse Nodal for 5 days; type: functional, cell-based
[19] = test system: AV3; experiment: Induction of mouse AV3 cell differentiation into pancreatic lineage assessed as increase in Nkx2.2 mRNA expression at 300 nM after 6 days by RT-PCR analysis pretreated with 1000 ng/ml recombinant mouse Nodal for 5 days; type: functional, cell-based
[20] = Induction of cell proliferation in human HUES8 Pdx1 expressing cells assessed as expression of Ki67 at 300 nM after 4 days by immunocytochemistry; type: functional
[21] = species: Homo sapiens; experiment: Induction of human HUES8 differentiation into definitive endoderm assessed as expression of SOX17 at 300 nM after 3 days by immunocytochemistry; type: functional
[22] = Induction of human GTE cells differentiation into pancreatic lineage assessed as increase in Pdx1-expressing cells at 300 nM after 4 days by immunocytochemistry pregrown in medium with FGF10 and KAAD-cyclopamine (Rvb (DMSO) = 2.8+/-0.6%); type: functional
[23] = Inhibition of PKC signaling in human HUES8 cells assessed as decrease in Pdx1-expressing cells at 1 uM after 4 days cells pregrown in medium with Wnt3a, activin A, FGF10, KAAD-cyclopamine and retinoic acid in presence of 1 uM BISI by immunocytochemistry (reference value: 26.9+/-2.8%); type: cell-based
[24] = Inhibition of PKC signaling in human HUES8 cells assessed as decrease in Pdx1-expressing cells at 1 uM after 4 days cells pregrown in medium with Wnt3a, activin A, FGF10, KAAD-cyclopamine and retinoic acid in presence of 10 uM Go 6983 by immunocytochemistry (reference value: 26.9+/-2.8%); type: cell-based
[25] = Inhibition of PKC signaling in human HUES8 cells assessed as decrease in Pdx1-expressing cells at 4 uM after 4 days by immunocytochemistry in presence of ILV pregrown in medium with Wnt3a, activin A, FGF10, KAAD-cyclopamine and retinoic acid (reference value: 26.9+/-2.8%); type: cell-based
[26] = species: Mus musculus; experiment: Induction of SOX7 expression in CD1 nude mouse extra-embryonic endoderm at 300 nM after 4 days by fluorescent confocal microscopy; type: functional, tissue-based
[27] = test system: Intestine; experiment: Induction of CES2 expression in CD1 nude mouse intestine at 300 nM after 4 days by fluorescent confocal microscopy; type: functional, tissue-based
[28] = test system: Intestine; experiment: Induction of FABP2 expression in CD1 nude mouse intestine at 300 nM after 4 days by fluorescent confocal microscopy; type: functional, tissue-based
[29] = test system: Liver; experiment: Induction of Albumin expression in CD1 nude mouse liver at 300 nM after 4 days by fluorescent confocal microscopy; type: functional, tissue-based
[30] = species: Mus musculus; experiment: Induction of desmin expression in CD1 nude mouse mesoderm at 300 nM after 4 days by fluorescent confocal microscopy; type: functional, tissue-based
[31] = species: Mus musculus; experiment: Induction of MYOD expression in CD1 nude mouse mesoderm at 300 nM after 4 days by fluorescent confocal microscopy; type: functional

**Q.** What does the source list for `CC(C)[C@H]1C(=O)N[C@H](CO)Cc2c[nH]c3cccc(c23)N1C` [INDOLACTUM]?
**A.** Activity [1]: 5.3%; Activity [2]: 26.9%; Activity [3]: Active; Activity [4]: 99.5%; Activity [5]: Active; Activity [6]: Active; Activity [7]: Active; Activity [8]: 0.5%; Activity [9]: Active; Activity [10]: Active; Activity [11]: 19.5%; Activity [12]: inactive; Activity [13]: 22.7%; Activity [14]: Active; Activity [15]: Active; Activity [16]: Active; Activity [17]: Active; Activity [18]: Active; Activity [19]: Active; Activity [20]: 0.1%; Activity [21]: inactive; Activity [22]: 21.5%; inhibition [23]: 0.6%; inhibition [24]: 0.8%; inhibition [25]: 1.2%; Activity [26]: inactive; Activity [27]: inactive; Activity [28]: inactive; Activity [29]: inactive; Activity [30]: inactive; Activity [31]: inactive
